Compound in one assay: CS(=O)(=O)CCNCc1ccc(-c2ccc3ncnc(Nc4ccc(OCc5cccc(F)c5)c(Cl)c4)c3c2)o1 [LAPATINIB]
Put plainly: surviving fraction relative to DMSO-only wells; higher = less growth inhibition. Conditions: exposure time: 5 days. A digest of the protocol: (§1)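 Inhibitors were tested at 0.5, 1, 5, 10, 50, 100, 500 and 1000 nM, applied continuously for five days beginning 24 hours after log-phase tumour cells were seeded at 250–500 per well in 384-well plates. CellTiter-Glo luminescence served as the viability measure, expressed as surviving fraction against the median of DMSO-only wells. Each line, screened three times, was kept only with replicate Pearson r >0.7 and median Z' >0.3.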

Compound in a further assay: Oc1ccc(/C=C/c2cc(O)cc(O)c2)cc1 [RESVERATROL]
The description is as above. Conditions: exposure time: 5 days. A digest of the protocol:
as §1

± gives the standard deviation of the averaged measurements.

As for HUO3N1 BONE, the surviving fraction with LAPATINIB (0.5 nM) turned out to be 1.05 ± 0.044; with LAPATINIB (1 nM), 0.978 ± 0.069; with LAPATINIB (5 nM), 1.08 ± 0.038; with LAPATINIB (10 nM) it was 1.084 ± 0.01; in the assay with LAPATINIB (50 nM), 1.02 ± 0.037; in the assay with LAPATINIB (100 nM), 1.06 ± 0.043. The surviving fraction amounted to 0.876 ± 0.15 with LAPATINIB (500 nM); 1 ± 0.065 with LAPATINIB (1000 nM); 1.01 ± 0.036 with RESVERATROL (0.5 nM); 1.07 ± 0.037 with RESVERATROL (1 nM); 1.04 ± 0.034 with RESVERATROL (5 nM); 1.06 ± 0.06 in the assay with RESVERATROL (10 nM). Further, the surviving fraction with RESVERATROL (50 nM) is 1.09 ± 0.035; with RESVERATROL (100 nM), 1.1 ± 0.037; with RESVERATROL (500 nM) it was 1.07 ± 0.029; in the assay with RESVERATROL (1000 nM) it was 1.01 ± 0.067.

On to JIMT1 BREAST, for which the surviving fraction was 0.991 ± 0.035 in the assay with LAPATINIB (0.5 nM); 1.02 ± 0.04 with LAPATINIB (1 nM); 1.05 ± 0.039 with LAPATINIB (5 nM); 1.01 ± 0.024 with LAPATINIB (10 nM); 1 ± 0.035 with LAPATINIB (50 nM); 1.01 ± 0.066 with LAPATINIB (100 nM). In addition, the surviving fraction in the assay with LAPATINIB (500 nM) amounted to 0.907 ± 0.065; in the assay with LAPATINIB (1000 nM), 0.783 ± 0.019; with RESVERATROL (0.5 nM) it was 1.03 ± 0.038; in the assay with RESVERATROL (1 nM) it was 1.04 ± 0.042; with RESVERATROL (5 nM) it was 1.05 ± 0.047; in the assay with RESVERATROL (10 nM), 1.01 ± 0.029. Moreover, the surviving fraction in the assay with RESVERATROL (50 nM) stood at 1.01 ± 0.016; with RESVERATROL (100 nM), 1.05 ± 0.027; in the assay with RESVERATROL (500 nM) it was 1 ± 0.035; in the assay with RESVERATROL (1000 nM), 1.05 ± 0.021.

Take “JURKAT HAEMATOPOIETIC AND LYMPHOID TISSUE”: the surviving fraction was found to be 0.997 ± 0.078 with LAPATINIB (0.5 nM); 1.02 ± 0.061 in the assay with LAPATINIB (1 nM); 0.936 ± 0.037 with LAPATINIB (5 nM); 0.959 ± 0.017 with LAPATINIB (10 nM); 0.933 ± 0.055 with LAPATINIB (50 nM); 0.947 ± 0.025 with LAPATINIB (100 nM). The surviving fraction with LAPATINIB (500 nM) was determined as 1.01 ± 0.012; with LAPATINIB (1000 nM), 1.011 ± 0.0081; with RESVERATROL (0.5 nM), 1.022 ± 0.0052; with RESVERATROL (1 nM) it was 1.04 ± 0.022; with RESVERATROL (5 nM) it was 1.02 ± 0.011; with RESVERATROL (10 nM), 1.04 ± 0.033. The surviving fraction came out at 0.985 ± 0.018 in the assay with RESVERATROL (50 nM), 0.953 ± 0.011 in the assay with RESVERATROL (100 nM), 1.02 ± 0.029 with RESVERATROL (500 nM) and 1.04 ± 0.039 with RESVERATROL (1000 nM).

As for KPD BONE, the surviving fraction with LAPATINIB (0.5 nM) was 0.984 ± 0.055; with LAPATINIB (1 nM) it was 1.08 ± 0.03; in the assay with LAPATINIB (5 nM) it was 1.05 ± 0.02; in the assay with LAPATINIB (10 nM), 1.03 ± 0.049; in the assay with LAPATINIB (50 nM), 1.09 ± 0.06; with LAPATINIB (100 nM), 1.08 ± 0.066. For the same test system, the surviving fraction stood at 0.956 ± 0.08 in the assay with LAPATINIB (500 nM); 0.951 ± 0.094 with LAPATINIB (1000 nM); 0.997 ± 0.054 in the assay with RESVERATROL (0.5 nM); 1.03 ± 0.032 with RESVERATROL (1 nM); 1.08 ± 0.04 with RESVERATROL (5 nM); 1.09 ± 0.063 with RESVERATROL (10 nM). Moreover, the surviving fraction with RESVERATROL (50 nM) worked out at 1.02 ± 0.017; with RESVERATROL (100 nM), 1.08 ± 0.041; with RESVERATROL (500 nM), 0.969 ± 0.044; with RESVERATROL (1000 nM) it was 1.05 ± 0.028.

Turning to LM7 BONE, the surviving fraction in the assay with LAPATINIB (0.5 nM) was found to be 0.936 ± 0.046; in the assay with LAPATINIB (1 nM) it was 1.07 ± 0.079; with LAPATINIB (5 nM), 1.1 ± 0.034; with LAPATINIB (10 nM) it was 1.1 ± 0.042; with LAPATINIB (50 nM), 0.99 ± 0.057; with LAPATINIB (100 nM) it was 1.06 ± 0.02. The surviving fraction turned out to be 0.991 ± 0.022 with LAPATINIB (500 nM); 0.955 ± 0.041 with LAPATINIB (1000 nM); 1.05 ± 0.036 with RESVERATROL (0.5 nM); 1.05 ± 0.025 with RESVERATROL (1 nM); 1.1 ± 0.045 in the assay with RESVERATROL (5 nM); 1.18 ± 0.061 with RESVERATROL (10 nM). For the same test system, the surviving fraction is 1.07 ± 0.067 with RESVERATROL (50 nM), 1.15 ± 0.054 with RESVERATROL (100 nM), 1.04 ± 0.034 with RESVERATROL (500 nM) and 1.12 ± 0.048 with RESVERATROL (1000 nM).

The record behind these values is the supplement of paper PMC6045584.
